Values after ≈ are worked out from the molar mass of the structure shown. Where two headings read alike, the source gives them in different places.
Tests used:
[1] = tested on: kanamycin phosphotransferase Type-II; conditions: The Journal of Antibiotics, 27, 722-725 and 838-850 (1974); cited from earlier work
[2] = tested on: strains which phosphorylate the 3'-hydroxy group; conditions: background statement; cited from earlier work
[3] = tested on: E. cloacae A20364; test: MIC in Mueller-Hinton agar, APH(3')-I producer; format: cell-based; conditions: Enterobacter cloacae
Experimental: (§1) The Minimum Inhibitory Concentrations (MIC's) of BB-K311, amikacin and kanamycin A were determined in Mueller-Hinton agar against a number of kanamycin-sensitive and kanamycin-resistant strains of organisms.

[4] = tested on: E. coli A20363; test: MIC in Mueller-Hinton agar, APH(3')-I producer; format: cell-based; conditions: Escherichia coli
Experimental: as §1

[5] = tested on: S. aureus A22054; test: MIC in Mueller-Hinton agar, ANT(4')-producing strain; format: cell-based; conditions: Staphylococcus aureus
Experimental: as §1

[6] = tested on: B. brevis IFO 12334; test: as above; format: cell-based; conditions: Brevibacillus brevis, IFO12334
Experimental: as §1

[7] = tested on: S. epidermidis A22033; test: as above; format: cell-based; conditions: Staphylococcus epidermidis
Experimental: as §1

[8] = tested on: E. coli A20732; test: MIC in Mueller-Hinton agar, ANT(2") producer; format: cell-based; conditions: Escherichia coli
Experimental: as §1

[9] = tested on: E. cloacae A21006; test: MIC in Mueller-Hinton agar, APH(3')-II producer; format: cell-based; conditions: Enterobacter cloacae
Experimental: as §1

[10] = tested on: E. coli A20107; test: MIC in Mueller-Hinton agar, APH(3')-II producer; format: cell-based; conditions: Escherichia coli
Experimental: as §1

[11] = tested on: S. aureus Smith; test: MIC in Mueller-Hinton agar, kanamycin-sensitive strain; format: cell-based; conditions: Staphylococcus aureus
Experimental: as §1

[12] = tested on: K. pneumoniae A15130; test: as above; format: cell-based; conditions: Klebsiella pneumoniae
Experimental: as §1

[13] = tested on: P. vulgaris A9526; test: as above; format: cell-based; conditions: Proteus vulgaris
Experimental: as §1

[14] = tested on: S. marcescens A20019; test: as above; format: cell-based; conditions: Serratia marcescens
Experimental: as §1

[15] = tested on: P. mirabilis A9900; test: as above; format: cell-based; conditions: Proteus mirabilis
Experimental: as §1

[16] = tested on: E. coli A9632; test: as above; format: cell-based; conditions: Escherichia coli
Experimental: as §1

[17] = tested on: E. cloacae A20464; test: as above; format: cell-based; conditions: Enterobacter cloacae
Experimental: as §1

[18] = tested on: P. stuartii A20615; test: as above; format: cell-based; conditions: Providencia stuartii
Experimental: as §1

[19] = tested on: P. Morganii A20031; test: as above; format: cell-based; conditions: Morganella morganii
Experimental: as §1

[20] = tested on: B. brevis ATCC8185; test: as above; format: cell-based; conditions: Brevibacillus brevis
Experimental: as §1

[21] = tested on: E. coli A20895; test: MIC in Mueller-Hinton agar, AAC(3)-I producer; format: cell-based; conditions: Escherichia coli
Experimental: as §1

[22] = tested on: S. aureus A22421; test: MIC in Mueller-Hinton agar, AAC(6')-producing strain; format: cell-based; conditions: Staphylococcus aureus
Experimental: as §1

[23] = tested on: S. marcescens A22288; test: as above; format: cell-based; conditions: Serratia marcescens
Experimental: as §1

[24] = tested on: P. aeruginosa GN4925; test: as above; format: cell-based; conditions: Pseudomonas aeruginosa
Experimental: as §1

[25] = tested on: S. marcescens A22382; test: as above; format: cell-based; conditions: Serratia marcescens
Experimental: as §1

[26] = tested on: S. marcescens A21226; test: as above; format: cell-based; conditions: Serratia marcescens
Experimental: as §1

[27] = tested on: P. aeruginosa GN315; test: as above; format: cell-based; conditions: Pseudomonas aeruginosa
Experimental: as §1

[28] = tested on: S. epidermidis A22211; test: as above; format: cell-based; conditions: Staphylococcus epidermidis
Experimental: as §1

[29] = tested on: P. rettgeri HM-56; test: as above; format: cell-based; conditions: Providencia rettgeri, HM56
Experimental: as §1

[30] = tested on: S. epidermidis A22152; test: as above; format: cell-based; conditions: Staphylococcus epidermidis, A22152
Experimental: as §1

[31] = tested on: S. aureus A22153; test: as above; format: cell-based; conditions: Staphylococcus aureus
Experimental: as §1

[32] = tested on: E. cloacae HM-43; test: as above; format: cell-based; conditions: Enterobacter cloacae, HM43
Experimental: as §1

[33] = tested on: S. marcescens A21235; test: as above; format: cell-based; conditions: Serratia marcescens
Experimental: as §1

[34] = tested on: E. coli A2128; test: as above; format: cell-based; conditions: Escherichia coli
Experimental: as §1

[35] = tested on: microorganisms containing aminoglycoside-inactivating enzymes; conditions: background statement; cited from earlier work
[36] = tested on: aminoglycoside-4'-adenylyltransferase [ANT(4')]; conditions: background statement; cited from earlier work
[37] = tested on: aminoglycoside-6'-acetyltransferase [AAC(6')]; conditions: background statement; cited from earlier work

In the case of `NCC1CC(O)C(O)C(OC2C(N)CC(N)C(OC3OC(CO)C(O)C(N)C3O)C2O)O1` (stereo not drawn) [4'-deoxykanamycin], the “resistance to kanamycin phosphotransferase Type-II” value [1] is listed as “resistance to kanamycin phosphotransferase Type-II”.
In the case of `NC[C@H]1O[C@H](O[C@H]2[C@H](O)[C@@H](O[C@H]3O[C@H](CO)[C@@H](O)[C@H](N)[C@H]3O)[C@H](N)C[C@@H]2N)[C@H](O)[C@@H](O)[C@@H]1O` [Kanamycin A, kanamycin A], the “activity against 3'-hydroxy phosphorylating strains” value [2] is given as “certain strains of Gram-negative bacteria are resistant to kanamycin A”, the MIC ([3]; A20364) is given as 100 µg/mL (≈ 206 µM) and the MIC ([4]; A20363) is given as 100 µg/mL (≈ 206 µM). For the same compound, the MIC ([5]; A22054) was > 100 µg/mL, the MIC [6] was > 100 µg/mL and the MIC ([7]; A22033) was 50 µg/mL (≈ 103 µM). The MIC ([8]; A20732) was 25 µg/mL (≈ 51.6 µM), the MIC ([9]; A21006) was 100 µg/mL (≈ 206 µM) and the MIC ([10]; A20107) was 100 µg/mL (≈ 206 µM). For the same compound, the MIC [11] was 0.8 µg/mL (≈ 1.65 µM), the MIC ([12]; A15130) was 1.6 µg/mL (≈ 3.3 µM) and the MIC ([13]; A9526) was 0.8 µg/mL (≈ 1.65 µM). It also gave an MIC ([14]; A20019) of 1.6 µg/mL (≈ 3.3 µM), an MIC ([15]; A9900) of 1.6 µg/mL (≈ 3.3 µM) and an MIC ([16]; A9632) of 1.6 µg/mL (≈ 3.3 µM). The MIC ([17]; A20464) was 6.3 µg/mL (≈ 13 µM), the MIC ([18]; A20615) was 1.6 µg/mL (≈ 3.3 µM) and the MIC [19] was 3.1 µg/mL (≈ 6.4 µM). The MIC ([20]; ATCC8185) was 1.6 µg/mL (≈ 3.3 µM), the MIC ([21]; A20895) was 1.6 µg/mL (≈ 3.3 µM) and the MIC ([22]; A22421) was > 100 µg/mL. For the same compound, the MIC ([23]; A22288) was > 100 µg/mL, the MIC ([24]; GN4925) was 100 µg/mL (≈ 206 µM) and the MIC ([25]; A22382) was 25 µg/mL (≈ 51.6 µM). The MIC ([26]; A21226) was 12.5 µg/mL (≈ 25.8 µM), the MIC ([27]; GN315) was > 100 µg/mL and the MIC ([28]; A22211) was > 100 µg/mL. For the same compound, the MIC [29] was > 100 µg/mL, the MIC [30] was > 100 µg/mL and the MIC ([31]; A22153) was > 100 µg/mL. For the same compound, the MIC [32] was > 100 µg/mL, the MIC ([33]; A21235) was 50 µg/mL (≈ 103 µM) and the MIC ([34]; A2128) was 100 µg/mL (≈ 206 µM).
With `NCC[C@H](O)C(=O)N[C@@H]1C[C@H](N)[C@@H](O[C@H]2O[C@H](CN)[C@@H](O)[C@H](O)[C@H]2O)[C@H](O)[C@H]1O[C@H]1O[C@H](CO)[C@@H](O)[C@H](N)[C@H]1O` [Amikacin, 1-N-[L-(-)-γ-amino-α-hydroxybutyryl]kanamycin A] the MIC ([3]; E. cloacae A20364, enzyme produced: APH(3')-I, Mueller-Hinton agar, read-out: MIC) was 3.1 µg/mL (≈ 5.29 µM), the MIC ([4]; E. coli A20363, enzyme produced: APH(3')-I, Mueller-Hinton agar, read-out: MIC) was 1.6 µg/mL (≈ 2.73 µM) and the MIC ([5]; S. aureus A22054, ANT(4')-producing, Mueller-Hinton agar, read-out: MIC) was 6.3 µg/mL (≈ 10.8 µM). For the same compound, the MIC ([6]; B. brevis IFO 12334, ANT(4')-producing, Mueller-Hinton agar, read-out: MIC) was 6.3 µg/mL (≈ 10.8 µM), the MIC ([7]; S. epidermidis A22033, ANT(4')-producing, Mueller-Hinton agar, read-out: MIC) was 6.3 µg/mL (≈ 10.8 µM) and the MIC ([8]; E. coli A20732, enzyme produced: ANT(2"), Mueller-Hinton agar, read-out: MIC) was 0.8 µg/mL (≈ 1.37 µM). The “effectiveness against enzyme-containing microorganisms” value [35] was “effective against a wide variety of microorganisms containing aminoglycoside-inactivating enzymes”, the MIC ([9]; E. cloacae A21006, enzyme produced: APH(3')-II, Mueller-Hinton agar, read-out: MIC) was 1.6 µg/mL (≈ 2.73 µM) and the MIC ([10]; E. coli A20107, enzyme produced: APH(3')-II, Mueller-Hinton agar, read-out: MIC) was 1.6 µg/mL (≈ 2.73 µM). For the same compound, the MIC ([11]; S. aureus Smith, enzyme produced: none, Mueller-Hinton agar, read-out: MIC) was 0.8 µg/mL (≈ 1.37 µM), the MIC ([12]; K. pneumoniae A15130, enzyme produced: none, Mueller-Hinton agar, read-out: MIC) was 1.6 µg/mL (≈ 2.73 µM) and the MIC ([13]; P. vulgaris A9526, enzyme produced: none, Mueller-Hinton agar, read-out: MIC) was 0.8 µg/mL (≈ 1.37 µM). It also gave an MIC ([14]; S. marcescens A20019, enzyme produced: none, Mueller-Hinton agar, read-out: MIC) of 1.6 µg/mL (≈ 2.73 µM), an MIC ([15]; P. mirabilis A9900, enzyme produced: none, Mueller-Hinton agar, read-out: MIC) of 1.6 µg/mL (≈ 2.73 µM) and an MIC ([16]; E. coli A9632, enzyme produced: none, Mueller-Hinton agar, read-out: MIC) of 0.8 µg/mL (≈ 1.37 µM). It also gave an MIC ([17]; E. cloacae A20464, enzyme produced: none, Mueller-Hinton agar, read-out: MIC) of 3.1 µg/mL (≈ 5.29 µM), an MIC ([18]; P. stuartii A20615, enzyme produced: none, Mueller-Hinton agar, read-out: MIC) of 1.6 µg/mL (≈ 2.73 µM) and an MIC ([19]; P. Morganii A20031, enzyme produced: none, Mueller-Hinton agar, read-out: MIC) of 1.6 µg/mL (≈ 2.73 µM). The MIC ([20]; B. brevis ATCC8185, enzyme produced: none, Mueller-Hinton agar, read-out: MIC) was 0.8 µg/mL (≈ 1.37 µM), the MIC ([21]; E. coli A20895, enzyme produced: AAC(3)-I, Mueller-Hinton agar, read-out: MIC) was 0.8 µg/mL (≈ 1.37 µM) and the “susceptibility to ANT(4')” value [36] was “still susceptible”. It also gave an MIC ([22]; S. aureus A22421, AAC(6')-producing, Mueller-Hinton agar, read-out: MIC) of 12.5 µg/mL (≈ 21.3 µM), an MIC ([23]; S. marcescens A22288, AAC(6')-producing, Mueller-Hinton agar, read-out: MIC) of 6.3 µg/mL (≈ 10.8 µM) and an MIC ([24]; P. aeruginosa GN4925, AAC(6')-producing, Mueller-Hinton agar, read-out: MIC) of 12.5 µg/mL (≈ 21.3 µM). For the same compound, the MIC ([25]; S. marcescens A22382, AAC(6')-producing, Mueller-Hinton agar, read-out: MIC) was 12.5 µg/mL (≈ 21.3 µM), the MIC ([26]; S. marcescens A21226, AAC(6')-producing, Mueller-Hinton agar, read-out: MIC) was 6.3 µg/mL (≈ 10.8 µM) and the MIC ([27]; P. aeruginosa GN315, AAC(6')-producing, Mueller-Hinton agar, read-out: MIC) was 50 µg/mL (≈ 85.4 µM). The MIC ([28]; S. epidermidis A22211, AAC(6')-producing, Mueller-Hinton agar, read-out: MIC) was 12.5 µg/mL (≈ 21.3 µM), the MIC ([29]; P. rettgeri HM-56, AAC(6')-producing, Mueller-Hinton agar, read-out: MIC) was > 100 µg/mL and the MIC [30] was 3.1 µg/mL (≈ 5.29 µM). For the same compound, the MIC ([31]; S. aureus A22153, AAC(6')-producing, Mueller-Hinton agar, read-out: MIC) was 12.5 µg/mL (≈ 21.3 µM), the MIC ([32]; E. cloacae HM-43, AAC(6')-producing, Mueller-Hinton agar, read-out: MIC) was > 100 µg/mL and the MIC ([33]; S. marcescens A21235, AAC(6')-producing, Mueller-Hinton agar, read-out: MIC) was 25 µg/mL (≈ 42.7 µM). For the same compound, the MIC ([34]; E. coli A2128, AAC(6')-producing, Mueller-Hinton agar, read-out: MIC) was 3.1 µg/mL (≈ 5.29 µM) and the “susceptibility to AAC(6')” value [37] was “still susceptible”.
